This note sets out measurements from the METLIN SMRT retention time set (Domingo-Almenara et al. 2019).

This data set can be described thus: gradient 5% acetonitrile 3 min, to 50% in 2 min, to 85% in 15 min, held 3 min, 100 µL/min. Conditions: column: Zorbax Extend-C18 2.1 x 50 mm; eluents: water / acetonitrile, 0.1% formic acid. The gist of the method: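 Pure standards were run in mixtures of ~100 molecules by HPLC coupled to a quadrupole time-of-flight mass spectrometer. The column was a Zorbax Extend-C18 (2.1 × 50 mm, 1.8 μm) at 100 μL/min, with water and acetonitrile each containing 0.1% formic acid, in positive and negative ionization mode. Dead and dwell volumes were 40 μL and 900 μL. Retention time was taken from computationally picked adduct peaks, each manually inspected, with data collected over 3 months.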
Consider `CCc1cc(-c2csc(S(=O)(=O)NCc3ccc(Br)cc3)c2)on1`, for which the RP-LC retention time came out at 1020 s.
As for `Cn1cc(CC(=O)NCc2cc(-c3ccc4c(c3)OCO4)on2)c2ccccc21`, the figure is 813 s; as for `Cc1cc(C)c2oc(C(=O)NCC(c3ccccc3)N(C)C)cc(=O)c2c1` (configuration not stated), 636 s; as for `CN(Cc1ccccc1)C(=O)Cn1cnc2nc3c(cc2c1=O)CCCC3`, 725 s.
With `O=c1c(Cl)c(N2CCN(c3ccccn3)CC2)cnn1-c1nc2ccccc2s1`, the RP-LC retention time came out at 639 s.
For the compound `CSc1cccc(NC(=O)N2CCC(C)(C(=O)NCc3ccc4c(c3)OCO4)CC2)c1`, the RP-LC retention time turned out to be 837 s.
With `CCN1C(=O)c2ccccc2Oc2ccc(C(=O)NC3CCCC3)cc21`, the RP-LC retention time is 891 s.
As for `CCn1c(=O)n(CCN2CCOCC2)c(=O)c2cnc(-c3ccc(Cl)cc3)nc21`, the figure is 709 s.
In turn, `Cc1c(Cl)cccc1S(=O)(=O)N1CCc2c(c(-c3nnc(-c4ccccc4F)o3)nn2C)C1` registered an RP-LC retention time of 1050 s.
Consider `CC(C)c1cc(=O)n(CC(=O)Nc2cccc(-c3cn4c(n3)SCC4)c2)cn1`, for which the RP-LC retention time was 568 s.
Take `Cc1ccc(NC(=O)C2(C)Oc3cccnc3NC2=O)cc1` (configuration not stated): the RP-LC retention time came to 727 s.
On to `O=C(NCc1ccccc1Cl)c1c(O)c2cccnc2n(-c2ccc(F)cc2)c1=O`, for which the RP-LC retention time is 1240 s.
For the compound `O=C(CCn1nnc2cc(-c3noc(CCC4CCCC4)n3)ccc21)N1CCCC1`, the RP-LC retention time was determined as 1050 s.
In turn, `Cc1cc(C(F)(F)F)nn1CC(=O)NCCn1c(C)cnc1C1CCC1` yielded an RP-LC retention time of 634 s.
As for `CCCOc1ccc(CN2CCN(C(=O)c3ccoc3)CC2)cn1`, the figure is 679 s; as for `CN1C(=O)c2cc(C(=O)NCc3cccc(F)c3)nn2CC1(C)C(=O)NCc1ccc(F)cc1` (configuration not stated), 760 s.
For the compound `CCc1cccc(NC(=O)C2CCN(S(=O)(=O)c3cc(C(=O)N4CCCC4)cs3)CC2)c1`, the RP-LC retention time came to 892 s.
Compound `Cc1ccc(N2CCN(C(=O)C3CCc4sc(C(=O)N(C)C)cc4C3)CC2)cc1` (configuration not stated) had an RP-LC retention time of 825 s.
The compound `COc1cc(C)nc(-n2nc(C)cc2OC)n1` returned an RP-LC retention time of 711 s.
As to `O=C(NCCn1cccn1)c1nn(CCOc2ccccc2)c2c1CNCC2`, the RP-LC retention time worked out at 600 s.
`Cc1ccc(Cn2c(=O)n(CCNC(=O)c3ccsc3)c3ncccc32)cc1` returned an RP-LC retention time of 794 s.
`O=C1C(=O)N(C2CCN(S(=O)(=O)c3ccc(F)c(F)c3)CC2)CCN1Cc1ccccc1`: the RP-LC retention time came to 827 s.
For the compound `Cc1cccc(CNC(=O)C2(C)Cn3cnc(C(=O)NCc4ccccc4F)c3C(=O)N2C2CC2)c1` (configuration not stated), the RP-LC retention time stood at 772 s.
In turn, `O=C(NCC1(O)CCCC1)C1CC(=O)N(c2ccccc2)C1` (configuration not stated) had an RP-LC retention time of 624 s.
In the case of `CCc1ccc(-c2cc3c(=O)n(Cc4noc(CN5CCCCC5CC)n4)ccn3n2)cc1` (configuration not stated), the RP-LC retention time was 778 s.
In turn, `Cc1cc(N2CCN(c3ccccn3)CC2)n2nc(-c3ccco3)nc2n1` gave an RP-LC retention time of 584 s.
In the case of `CCOc1ccc(C(=O)NCCc2nc3cccnc3n2CC)cc1`, the RP-LC retention time turned out to be 642 s.
The compound `COCCN1C(=O)CS(=O)C12CCN(C(=O)Nc1ccc3c(c1)OCCO3)CC2` (configuration not stated) displayed an RP-LC retention time of 608 s.
The compound `Cc1ccnc(NC(=O)C2CCN(S(=O)(=O)c3ccc4c(c3)sc(=O)n4C)CC2)c1` gave an RP-LC retention time of 645 s.
`Cc1ccc(-c2coc(-c3ccc(NS(=O)(=O)c4ccc(Cl)s4)cc3)n2)c(C)c1` came in with an RP-LC retention time of 1350 s.
The compound `COc1ccc(CN2CC3(CCN(S(=O)(=O)c4cc(F)ccc4F)CC3)C2=O)cc1` gave an RP-LC retention time of 924 s.
The same measure for `CCc1nn2c(CNS(=O)(=O)c3ccccc3Cl)c(-c3ccccc3)nc2s1`: 1000 s.
